From patent US7829665B2 (priority 2005, dated 2010)

Target: T1, full-length NS3/NS4A-2 (HCV NS3 protease) (Hepatitis C virus genotype 1a, UniProt P27958)
T1 construct: Recombinant E. coli or Baculovirus full-length NS3 was diluted to 3.33 μM with assay buffer; made in house; host or cells: E. coli or baculovirus (BV) expression system
Experiment: NS3-NS4 protease assay / NS3 inhibition assay (RETS1 substrate, fluorescence kinetic read)
Type: biochemical
Settings: Table 22; read-out: NS3-NS4 IC50
Procedure: NS3 complex formation with NS4A-2.
Recombinant E. coli or Baculovirus full-length NS3 was diluted to 3.33 μM with assay buffer and transferred material to an eppendorf tube and place in water bath in 4° C. refrigerator. The appropriate amount of NS4A-2 to 8.3 mM in assay buffer was added to equal the volume of NS3 in step 2.1.1 (conversion factor—3.8 mg/272 μL assay buffer). The material was transferred to an eppendorf tube and place in water bath in 4° C. refrigerator.
After equilibration to 4° C., equal volumes of NS3 and NS4A-2 solutions were combined in an eppendorf tube, mix gently with a manual pipettor, and incubate mixture for 15 minutes in the 4° C. water bath. Final concentrations in the mixture are 1.67 μM NS3, 4.15 mM NS4A-2 (2485-fold molar excess NS4A-2).
After 15 minutes at 4° C., the NS3/NS4A-2 eppendorf tube was removed and place it in a room temperature water bath for 10 minutes. NS3/NS4A-2 was alliquoted at appropriate volumes and store at −80° C. (E. coli NS3 run at 2 nM in assay, aliquot at 25 μL. BV NS3 run at 3 nM in assay, aliquot at 30 μL).
Sample compounds were dissolved to 10 mM in DMSO then diluted to 2.5 mM (1:4) in DMSO. Typically, compounds were added to an assay plate at 2.5 mM concentration, yielding upon dilution a starting concentration of 50 microM in the assay inhibition curve. Compounds were serial diluted in assay buffer to provide test solutions at lower concentrations.
The E. coli. NS3/NS4A-2 was diluted to 4 nM NS3 (1:417.5 of 1.67 μM stock−18 μL 1.67 μM stock+7497 μL assay buffer). The BV NS3/NS4A-2 was diluted to 6 nM NS3 (1:278.3 of 1.67 μM stock−24 μL 1.67 μM stock+6655 μL assay buffer). Using the manual multichannel pipettor, careful not to introduce bubbles into the plate, add 50 μL assay buffer to wells A01-H01 of a black Costar 96-well polypropylene storage plate.
Using the manual multichannel pipettor, careful not to introduce bubbles into the plate, add 50 μL of diluted NS3/NS4A-2 from step 2.2.6 to wells A02-H12 of plate in step 2.2.7. Using the manual multichannel pipettor, careful not to introduce bubbles into the plate, transfer 25 μL of the wells in drug dilution plate in step 2.2.5 to corresponding wells in assay plate in step 2.2.8. Change tips on multichannel pipettor for each row of compounds transferred. Using the manual multichannel pipettor, careful not to introduce bubbles into the plate, mix the wells from the assay plate in step 2.2.9 by aspirating and dispensing 35 μL of the 75 μL in each well five times. Change tips on multichannel pipettor for each row of wells mixed. Cover plate with a polystyrene plate lid and pre-incubate the plate from step 2.2.10 containing NS3 protease and sample compounds 10 minutes at room temperature. While plate from step 2.2.11 is pre-incubating, dilute RETS1 substrate in a 15 mL polypropylene centrifuge tube. Dilute RETS1 substrate to 8 μM (1:80.75 of 646 μM stock−65 μL 646 μM stock+5184 μL assay buffer).
After the plate in step is done pre-incubating, and using the manual multichannel, add 25 μL of substrate to all wells on the plate. Quickly mix the plate as in step 2.2.10, mixing 65 μL of the 100 μL in the wells.
Read the plate in kinetic mode on the Molecular Devices SpectraMax Gemini XS plate reader. Reader settings: Read time: 30 minutes, Interval: 36 seconds, Reads: 51, Excitation λ: 335 nm, Emission λ: 495 nm, cutoff: 475 nm, Automix: off, Calibrate: once, PMT: high, Reads/well: 6, Vmax pts: 21 or 28/51 depending on length of linearity of reaction
IC50 s are determined using a four parameter curve fit equation, and converted to Ki's using the following Km's: • Full-length E. coli NS3—2.03 μM • Full-length BV NS3—1.74 μM where Ki=IC50/(1+[S]/Km)) • Quantitation by ELISA of the selectable marker protein, Neomycin phosphotransferase II (NPTII) in the HCV Sub-Genomic Replicon, GS4.3

T1 sequence (P27958 1027-1657): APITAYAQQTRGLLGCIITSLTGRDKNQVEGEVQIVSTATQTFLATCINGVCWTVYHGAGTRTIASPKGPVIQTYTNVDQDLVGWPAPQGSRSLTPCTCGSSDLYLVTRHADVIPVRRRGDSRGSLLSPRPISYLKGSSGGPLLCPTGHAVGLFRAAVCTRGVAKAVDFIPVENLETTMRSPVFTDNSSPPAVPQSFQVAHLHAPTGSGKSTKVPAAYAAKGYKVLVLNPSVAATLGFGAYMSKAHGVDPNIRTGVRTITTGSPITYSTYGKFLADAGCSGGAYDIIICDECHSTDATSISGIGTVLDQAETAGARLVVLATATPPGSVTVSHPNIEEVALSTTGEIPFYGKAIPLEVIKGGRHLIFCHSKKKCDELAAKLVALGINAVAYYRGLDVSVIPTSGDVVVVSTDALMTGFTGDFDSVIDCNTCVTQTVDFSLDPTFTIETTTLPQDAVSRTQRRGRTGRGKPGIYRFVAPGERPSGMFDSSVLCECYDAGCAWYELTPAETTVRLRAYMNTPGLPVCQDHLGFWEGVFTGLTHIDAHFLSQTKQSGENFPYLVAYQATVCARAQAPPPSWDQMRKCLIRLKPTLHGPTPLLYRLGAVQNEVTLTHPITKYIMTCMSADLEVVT

Q: `CC(C)(C)OC(=O)N[C@H]1CCCCC/C=C\[C@@H]2C[C@@]2(C(=O)NC2CC2)NC(=O)[C@@H]2CCCN2C1=O` [Compound 2318] was tested. Which IC50 did it give?
A: < 1 µM

Q: With `CC(C)(C)OC(=O)NC1CCCCCC=CC2CC2(C(=O)NCc2cccc(Cl)c2)NC(=O)C2CCCN2C1=O` (centres unmarked) [Compound 2309] as the compound, how does the IC50 read?
A: < 1 µM

Q: For `CC(C)(C)OC(=O)N[C@H]1CCCCC/C=C\[C@@H]2C[C@@]2(C(=O)NCC#N)NC(=O)[C@@H]2CCCN2C1=O` [Compound 2322], which IC50 is on record?
A: < 0.1 µM

Same assay, conditions: Table 25; read-out: NS3-NS4 IC50

Q: With `CC(C)(C)OC(=O)N[C@H]1CCCCC/C=C\[C@@H]2C[C@@]2(C(=O)N[S@+]([O-])C(C)(C)C)NC(=O)[C@@H]2C[C@@H](OC(=O)N3Cc4ccccc4C3)CN2C1=O` [Compound 2604] as the compound, how does the IC50 read?
A: > 10 µM

Q: `CC(C)(C)OC(=O)N[C@H]1CCCCC/C=C\[C@@H]2C[C@@]2(C(=O)N[S@@+]([O-])C(C)(C)C)NC(=O)[C@@H]2C[C@@H](OC(=O)N3Cc4ccccc4C3)CN2C1=O` [Compound 2601, (1S,4R,6S,14S,18R)-1,3-Dihydro-isoindole-2-carbonyloxylic acid 14-tert-butoxycarbonylamino-4-((S)-2-methylpropane-2-sulfinyl)aminocarbonyl-2,15-dioxo-3,16-diaza-tricyclo[14.3.0.0^4,6]nonadec-7-ene-18-yl ester] was tested. Which IC50 did it give?
A: > 10 µM

Same assay, conditions: recombinant E. coli or Baculovirus full-length NS3 with NS4A-2; read-out: NS3-NS4 IC50

Q: For `CC(C)(C)OC(=O)N[C@H]1CCCCC/C=C\[C@@H]2C[C@@]2(C(=O)NS(=O)(=O)C2(C)CC2)NC(=O)[C@@H]2CCCN2C1=O` [Compound 300, (1S,4R,6S,14S) tert-butyl 4-Cyclopropanesulfonylaminocarbonyl-2,15-dioxo-3,16-diaza-tricyclo[14.3.0.0^4,6]nonadec-7-ene-14-yl carbamate], which IC50 is on record?
A: < 1 µM

Q: `N[C@H]1CCCCC/C=C\[C@@H]2C[C@@]2(C(=O)NS(=O)(=O)Nc2ccc(Cl)cc2)NC(=O)[C@@H]2C[C@@H](OC(=O)N3Cc4ccccc4C3)CN2C1=O` [Compound 203] was tested. Which IC50 did it give?
A: < 1 µM

Q: `CC(C)(C)OC(=O)N[C@H]1CCCCC/C=C\[C@@H]2C[C@@]2(C(=O)NS(=O)(=O)Nc2ccccc2Cl)NC(=O)[C@@H]2CCCN2C1=O` [Compound 2233] was tested. Which IC50 did it give?
A: < 1 µM

Q: For `C=CCN(C)S(=O)(=O)NC(=O)[C@@]12C[C@H]1/C=C\CCCCC[C@H](NC(=O)OC(C)(C)C)C(=O)N1CCC[C@H]1C(=O)N2` [Compound 412], which IC50 is on record?
A: < 10 µM

Q: Which IC50 does the source give for `CC(C)(C)OC(=O)N[C@H]1CCCCC/C=C\[C@@H]2C[C@@]2(C(=O)NS(=O)(=O)c2cc(Cl)sc2Cl)NC(=O)[C@@H]2CCCN2C1=O` [Compound 2126] here?
A: < 10 µM

Q: With `CC(C)(C)OC(=O)N[C@H]1CCCCC/C=C\[C@@H]2C[C@@]2(C(=O)NS(=O)(=O)Nc2ccc(F)cc2)NC(=O)[C@@H]2CCCN2C1=O` [Compound 2237] as the compound, how does the IC50 read?
A: < 1 µM

Q: Which IC50 does the source give for `CC(C)(C)OC(=O)N[C@H]1CCCCC/C=C\[C@@H]2C[C@@]2(C(=O)NS(=O)(=O)C(C)(C)C)NC(=O)[C@@H]2CCCN2C1=O` [Compound 303] here?
A: > 10 µM

Q: With `CC(C)(C)OC(=O)N[C@H]1CCCCC/C=C\[C@@H]2C[C@@]2(C(=O)NS(=O)(=O)NCc2ccncc2)NC(=O)[C@@H]2CCCN2C1=O` [Compound 426] as the compound, how does the IC50 read?
A: > 10 µM

Q: Which IC50 does the source give for `CC[C@@H]1C[C@H]2C(=O)N[C@]3(C(=O)NS(=O)(=O)C4CC4)C[C@H]3/C=C\CCCCC[C@H](NC(=O)OC(C)(C)C)C(=O)N2C1` [Compound 2145] here?
A: > 10 µM

Q: With `CN1CCN(S(=O)(=O)NC(=O)[C@@]23C[C@H]2/C=C\CCCCC[C@H](NC(=O)OC(C)(C)C)C(=O)N2CCC[C@H]2C(=O)N3)CC1` [Compound 2208] as the compound, how does the IC50 read?
A: < 1 µM

Q: For `CC(C)(C)OC(=O)N[C@H]1CCCCC/C=C\[C@@H]2C[C@@]2(C(=O)NS(=O)(=O)/C=C/c2ccccc2)NC(=O)[C@@H]2CCCN2C1=O` [Compound 2125], which IC50 is on record?
A: < 1 µM

Q: `COc1ccccc1S(=O)(=O)NC(=O)[C@@]12C[C@H]1/C=C\CCCCC[C@H](NC(=O)OC(C)(C)C)C(=O)N1CCC[C@H]1C(=O)N2` [Compound 2122] was tested. Which IC50 did it give?
A: < 1 µM

Q: With `O=C(N[C@H]1CCCCC/C=C\[C@@H]2C[C@@]2(C(=O)NS(=O)(=O)Nc2ccc(Cl)cc2)NC(=O)[C@@H]2CCCN2C1=O)C1CCC1` [Compound 427] as the compound, how does the IC50 read?
A: > 10 µM

Q: Which IC50 does the source give for `CC(C)(C)OC(=O)N[C@H]1CCCCC/C=C\[C@@H]2C[C@@]2(C(=O)NS(=O)(=O)N2CCCC2)NC(=O)[C@@H]2CCCN2C1=O` [Compound 2207] here?
A: < 10 µM

Q: For `CC(C)(C)OC(=O)N[C@H]1CCCCC/C=C\[C@@H]2C[C@@]2(C(=O)NS(=O)(=O)c2cc(Cl)ccc2F)NC(=O)[C@@H]2CCCN2C1=O` [Compound 2150], which IC50 is on record?
A: < 10 µM

Q: Which IC50 does the source give for `CC(C)(C)OC(=O)N[C@H]1CCCCC/C=C\[C@@H]2C[C@@]2(C(=O)N[S@@+]([O-])C(C)(C)C)NC(=O)[C@@H]2CCCN2C1=O` [Compound 2401, (1S,4R,6S,14S)tert-Butyl 4-((S)-2-methylpropane-2-sulfinyl)-aminocarbonyl-2,15-dioxo-3,16-diaza-tricyclo[14.3.0.0^4,6]nonadec-7-ene-14-yl carbamate] here?
A: < 0.1 µM

Q: For `CC(C)(C)OC(=O)N[C@H]1CCCCC/C=C\[C@@H]2C[C@@]2(C(=O)NS(=O)(=O)c2cccc(Cl)c2F)NC(=O)[C@@H]2CCCN2C1=O` [Compound 2151], which IC50 is on record?
A: < 1 µM

Q: `Cc1ccc([S@@+]([O-])NC(=O)[C@@]23C[C@H]2/C=C\CCCCC[C@H](NC(=O)OC(C)(C)C)C(=O)N2CCC[C@H]2C(=O)N3)cc1` [Compound 2403] was tested. Which IC50 did it give?
A: < 1 µM

Q: `C=CCC1(S(=O)(=O)NC(=O)[C@@]23C[C@H]2/C=C\CCCCC[C@H](NC(=O)OC(C)(C)C)C(=O)N2CCC[C@H]2C(=O)N3)CC1` [Compound 305] was tested. Which IC50 did it give?
A: < 10 µM

Q: How did the IC50 turn out when `CC(C)(C)OC(=O)N[C@H]1CCCCC/C=C\[C@@H]2C[C@@]2(C(=O)NS(=O)(=O)c2ccc(Cl)s2)NC(=O)[C@@H]2CCCN2C1=O` [Compound 2132] was run?
A: < 10 µM

Q: How did the IC50 turn out when `CN(Cc1ccc(Cl)cc1)S(=O)(=O)NC(=O)[C@@]12C[C@H]1/C=C\CCCCC[C@H](NC(=O)OC(C)(C)C)C(=O)N1CCC[C@H]1C(=O)N2` [Compound 2230] was run?
A: < 10 µM

Q: For `O=C(N[C@H]1CCCCC/C=C\[C@@H]2C[C@@]2(C(=O)O)NC(=O)[C@@H]2CCCN2C1=O)C1CC1` [Compound 315], which IC50 is on record?
A: < 10 µM

Q: Which IC50 does the source give for `CC(C)C[C@@H]1C[C@H]2C(=O)N[C@]3(C(=O)NS(=O)(=O)C4CC4)C[C@H]3/C=C\CCCCC[C@H](NC(=O)OC(C)(C)C)C(=O)N2C1` [Compound 2147, (1S,4R,6S,14S,18R)-tert-Butyl 4-cyclopropylsulfonylaminocarbonyl-2,15-dioxo-3,16-diaza-18-(2-methylpropyl)-tricyclo[14.3.0.0^4,6]nonadec-7-ene-14-yl carbamate] here?
A: > 10 µM

Q: With `CCCNC(=O)[C@@]12C[C@H]1/C=C\CCCCC[C@H](NC1CCC1)C(=O)N1C[C@H](OC(=O)N3Cc4cccc(F)c4C3)C[C@H]1C(=O)N2` [Compound 623] as the compound, how does the IC50 read?
A: < 10 µM

Q: With `CC(C)(C)OC(=O)N[C@H]1CCCCC/C=C\[C@@H]2C[C@@]2(C(=O)NCC(O)(C(F)(F)F)C(F)(F)F)NC(=O)[C@@H]2CCCN2C1=O` [Compound 503] as the compound, how does the IC50 read?
A: > 10 µM

Q: Which IC50 does the source give for `O=C(N[C@H]1CCC(F)(F)CC/C=C\[C@@H]2C[C@@]2(C(=O)NS(=O)(=O)C2CC2)NC(=O)[C@@H]2C[C@@H](OC(=O)N3Cc4cccc(F)c4C3)CN2C1=O)OC1CCCC1` [Compound 1005] here?
A: < 0.1 µM

Q: For `CC(C)(C)OC(=O)N[C@H]1CCCCC/C=C\[C@@H]2C[C@@]2(CNS(=O)(=O)C2CC2)NC(=O)[C@@H]2C[C@@H](OC(=O)N3Cc4cccc(F)c4C3)CN2C1=O` [Compound 154], which IC50 is on record?
A: < 10 µM
